According to US20130102009A1, “SIRTUIN ACTIVATORS AND ACTIVATION ASSAYS” (priority 2010, published 2013):
Structures can show the parent of a compound that is named as a salt.

How the values were obtained:
SIRT1(183-664) [1] = target: T1, SIRT1(183-664) (Homo sapiens, UniProt Q96EB6); assay: ITC binding of STACs to SIRT1(183-664); conditions: dissociation constant of SRT:SIRT1 complex, read-out: Kx (μM), ITC
T1 construct: the truncated version used for biophysical studies SIRT1(183-664); made in house
T1 sequence (Q96EB6 183-664): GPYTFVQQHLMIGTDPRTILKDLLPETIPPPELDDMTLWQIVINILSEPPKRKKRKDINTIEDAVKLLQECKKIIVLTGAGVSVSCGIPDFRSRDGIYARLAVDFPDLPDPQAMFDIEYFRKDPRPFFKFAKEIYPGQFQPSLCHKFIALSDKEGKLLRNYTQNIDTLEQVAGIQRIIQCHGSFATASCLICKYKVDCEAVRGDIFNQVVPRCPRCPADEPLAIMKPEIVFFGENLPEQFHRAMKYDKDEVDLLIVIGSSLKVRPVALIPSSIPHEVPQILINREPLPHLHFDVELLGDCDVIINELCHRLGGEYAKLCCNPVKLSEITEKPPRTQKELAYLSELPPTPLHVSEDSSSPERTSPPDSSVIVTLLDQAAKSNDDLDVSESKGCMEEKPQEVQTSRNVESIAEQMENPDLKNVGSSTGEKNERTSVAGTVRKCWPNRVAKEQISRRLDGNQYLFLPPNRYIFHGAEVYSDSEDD
Protocol: All peptides were prepared by BioPeptide (San Diego, Calif.) and shown to be at least 95% pure by analytical HPLC analysis. Bovine glutamate dehydrogenase (GDH), α-ketoglutarate, NADH and NAD^+ were from Sigma Chemical Company. Full-length, human SIRT1 and the truncated version used for biophysical studies SIRT1(183-664) were prepared as described previously, and shown to have equivalent kinetic properties (Milne et al. (2007) Nature 450, 712-716). The nicotinamidase PNC1 was prepared as described by Denu and colleagues (Smith et al. (2009) Anal Biochem 394, 101-109). ITC experiments were performed using either a VP-ITC system or iTC200 system (MicroCal) at 26° C. in a buffer composed of 137 mM NaCl, 2.7 mM KCl, 1 mM MgCl2, 2 mM TCEP, 5% (v/v) glycerol and 50 mM HEPES-NaOH, pH 7.3. SIRT1(183-664) was purified and dialyzed against the buffer, centrifuged, and degassed before the experiment. The peptide and compounds were dissolved in the final dialysis buffer and their pH values were adjusted to match that of the protein solution. […] To characterize this interaction using the iTC200 system, 1 mM TAMRA-peptide was injected in 20 aliquots of 2 μL, (except the first injection, which was 0.5 μL) into a 0.202 mL sample cell containing 100 μM STAC. For STACs with poor solubility, the concentrations were adjusted accordingly. […] To characterize the interaction of a STAC with SIRT1(183-664) on the VP-ITC system, 100 μM enzyme was injected in 35 aliquots of 8 μL, (except the first injection, which was 2 μL) into a 1.47 mL sample cell containing 10 μM STAC. […] In all cases, data was corrected for the heat of dilution and fitted using a nonlinear least-squares routine using a single-site binding model with Origin for ITC v7.0383 (Microcal) with the stoichiometry (n), the enthalpy of the reaction (ΔH) and the association constant (Ka) calculated.

SIRT1(183-664) [2] = target: T1, SIRT1(183-664); assay: Fluorescence binding experiment with SIRT1(183-664); conditions: excitation 315 nm, emission 450 nm; read-out: Kx (μM), Fluorescence
Protocol: All peptides were prepared by BioPeptide (San Diego, Calif.) and shown to be at least 95% pure by analytical HPLC analysis. Bovine glutamate dehydrogenase (GDH), α-ketoglutarate, NADH and NAD^+ were from Sigma Chemical Company. Full-length, human SIRT1 and the truncated version used for biophysical studies SIRT1(183-664) were prepared as described previously, and shown to have equivalent kinetic properties (Milne et al. (2007) Nature 450, 712-716). The nicotinamidase PNC1 was prepared as described by Denu and colleagues (Smith et al. (2009) Anal Biochem 394, 101-109).
SIRT1(183-664) was dialyzed against a buffer composed of 137 mM NaCl, 2.7 mM KCl, 1 mM MgCl2, 2 mM TCEP, 5% (v/v) glycerol and 50 mM HEPES-NaOH, pH 7.3. 14 was dissolved in the final dialysis buffer and its pH values were adjusted to match that of the protein solution. The fluorescence emission spectra of 14 in the absence or presence of different concentrations of enzyme was monitored on the SpectraMax M5 with excitation at 315 nm. The fluorescence intensity change at 450 nm was plotted against the concentration of SIRT1(183-664) and fitted using a standard binding equation.

[3] = target: Ac-Arg-His-Lys-Lys^Ac-Trp-NH2; assay: ITC binding of STACs to Ac-Arg-His-Lys-Lys^Ac-X, X=TrpNH2; conditions: 10% DMSO for SRT1720, SRT2183 and 10, no cosolvent for SRT1460
Protocol: (§1) ITC experiments were performed using either a VP-ITC system or iTC200 system (MicroCal) at 26° C. in a buffer composed of 137 mM NaCl, 2.7 mM KCl, 1 mM MgCl2, 2 mM TCEP, 5% (v/v) glycerol and 50 mM HEPES-NaOH, pH 7.3. SIRT1(183-664) was purified and dialyzed against the buffer, centrifuged, and degassed before the experiment. The peptide and compounds were dissolved in the final dialysis buffer and their pH values were adjusted to match that of the protein solution. […] To characterize this interaction using the iTC200 system, 1 mM TAMRA-peptide was injected in 20 aliquots of 2 μL, (except the first injection, which was 0.5 μL) into a 0.202 mL sample cell containing 100 μM STAC. For STACs with poor solubility, the concentrations were adjusted accordingly. […] In all cases, data was corrected for the heat of dilution and fitted using a nonlinear least-squares routine using a single-site binding model with Origin for ITC v7.0383 (Microcal) with the stoichiometry (n), the enthalpy of the reaction (ΔH) and the association constant (Ka) calculated. Table 2 summarizes Kd values for the binding of STACs to […]. Note that except for SRT1460, the solubility of the compounds required that these ITC experiments be done in solutions containing 10% DMSO.

[4] = target: Ac-Arg-His-Lys-Lys^Ac-Phe-NH2; assay: ITC binding of STACs to Ac-Arg-His-Lys-Lys^Ac-X, X=PheNH2; conditions: 10% DMSO for SRT1720, SRT2183 and 10, no cosolvent for SRT1460
Protocol: as §1

[5] = target: Ac-Arg-His-Lys-Lys^Ac-AMC; assay: ITC binding of STACs to Ac-Arg-His-Lys-Lys^Ac-X, X=AMC; conditions: 10% DMSO for SRT1720, SRT2183 and 10, no cosolvent for SRT1460
Protocol: as §1

SMILES | Kd (SIRT1(183-664) [1]) [µM] | Kd (SIRT1(183-664) [2]) [µM] | Kd [3] [µM] | Kd for binding to Ac-Arg-His-Lys-Lys^Ac-X, X=TrpNH2 [3] | Kd [4] [µM] | Kd for binding to Ac-Arg-His-Lys-Lys^Ac-X, X=PheNH2 [4] | Kd [5] [µM]
CN(C)CCCNc1cc(-c2nc3c(NC(=O)c4ccc(CN5CCNCC5)cc4)cccc3[nH]2)ccn1 [Compound 14, N-(2-(2-(3-(dimethylamino)propylamino)pyridin-4-yl)-1H-benzo[d]imidazol-4-yl)-4-(piperazin-1-ylmethyl)benzamide trihydrochloride] | 0.43 | 0.27 |  |  |  |  | 
CCCCc1nc(NC2CCNCC2)cc(C(=O)Nc2ccccc2-c2nc3cc(COC4CCNCC4)cnc3s2)n1 [Compound 10, 2-butyl-6-(piperidin-4-ylamino)-N-(2-(6-((piperidin-4-yloxy)methyl)thiazolo[5,4-b]pyridin-2-yl)phenyl)pyrimidine-4-carboxamide] |  |  | 25 | binds | 190 | does bind | > 500
CN(C)Cc1cnc2sc(-c3ccccc3NC(=O)c3cnc4ccccc4n3)nc2c1 [Compound 2, N-(2-(6-((dimethylamino)methyl)thiazolo[5,4-b]pyridin-2-yl)phenyl)quinoxaline-2-carboxamide] | 0.32 | 0.27 |  |  |  |  | 
Cc1nc(-c2cccnc2)sc1C(=O)Nc1ccccc1-c1cn2c(CN3CC4CC3CN4)csc2n1 (centres unmarked) [Compound 4, N-(2-(3-(2,5-diazabicyclo[2.2.1]heptan-2-ylmethyl)imidazo[2,1-b]thiazol-6-yl)phenyl)-4-methyl-2-(pyridin-3-yl)thiazole-5-carboxamide] | 3 |  |  |  |  |  | 
COc1cc(C(=O)Nc2ccccc2-c2cn3c(CN4CCNCC4)csc3n2)cc(OC)c1OC [SRT1460] |  |  | > 500 |  | > 500 | no binding | > 500
